≈ marks a conversion by molar mass, not a printed value.
Assays:
Staph.aureus A 2001 [1] = assay: micro serial dilution test; format: cell-based, Staphylococcus aureus; conditions: Staphylococcus aureus, A2001, 18 h, micro serial dilution (in brackets), about 18 hours, 30° C. or 37° C.; read-out: minimal inhibitory concentration (MIC)
Salm.typh. R 172 = assay: agar serial dilution test; format: cell-based; conditions: 24 h, read-out: minimal inhibitory concentration (MIC)
Pseud.aerug. H 10 = assay: agar serial dilution test; format: cell-based; conditions: agar serial dilution, 24 hours, 37° C.; read-out: minimal inhibitory concentration (MIC)
Staph.aureus A 321 = assay: agar serial dilution test; format: cell-based, Staphylococcus aureus; conditions: Staphylococcus aureus, A321, 24 h, agar serial dilution, 24 hours, 37° C.; read-out: minimal inhibitory concentration (MIC)
Prot.rettg. A 821 = assay: agar serial dilution test; format: cell-based, Proteus rettgeri; conditions: Providencia rettgeri, 24 h, agar serial dilution, 24 hours, 37° C.; read-out: minimal inhibitory concentration (MIC)
Prot.mirab. A 1200 [2] = assay: micro serial dilution test; format: cell-based; conditions: Proteus mirabilis; micro serial dilution (in brackets), about 18 hours, 30° C. or 37° C.; read-out: minimal inhibitory concentration (MIC)
Dipl.pneum. L 54 = assay: agar serial dilution test; format: cell-based, Diplococcus pneumoniae; conditions: Streptococcus pneumoniae; agar serial dilution, 24 hours, 37° C.; read-out: minimal inhibitory concentration (MIC)
Staph.aureus A 355 [3] = assay: micro serial dilution test; format: cell-based, Staphylococcus aureus; conditions: Staphylococcus aureus, A355; micro serial dilution (in brackets), about 18 hours, 30° C. or 37° C.; penicillinase-producing strain; read-out: minimal inhibitory concentration (MIC)
Prot.mirab. H 3 = assay: agar serial dilution test; format: cell-based, Proteus mirabilis; conditions: Proteus mirabilis; agar serial dilution, 24 hours, 37° C.; read-out: minimal inhibitory concentration (MIC)
Prot.morg. 2241 = assay: agar serial dilution test; format: cell-based; conditions: 24 h, agar serial dilution, 24 hours, 37° C.; read-out: minimal inhibitory concentration (MIC)
Actinob.equ. T 3 = assay: agar serial dilution test; format: cell-based; conditions: 24 hours, 37° C., read-out: minimal inhibitory concentration (MIC)
Staph.aureus A 355 [4] = assay: agar serial dilution test; conditions: Staphylococcus aureus, A355, 24 h, read-out: minimal inhibitory concentration (MIC), agar serial dilution, 24 hours, 37° C.; penicillinase-producing strain
Prot.mirab. A 1200 [5] = assay: agar serial dilution test; format: cell-based, Proteus mirabilis; conditions: Proteus mirabilis, 24 h, agar serial dilution, 24 hours, 37° C.; read-out: minimal inhibitory concentration (MIC)
Staph.aureus A 2001 [6] = assay: agar serial dilution test; format: cell-based, Staphylococcus aureus; conditions: Staphylococcus aureus, A2001, 24 h, agar serial dilution, 24 hours, 37° C.; read-out: minimal inhibitory concentration (MIC)
Past.multo. A 723 = assay: agar serial dilution test; format: cell-based, Pasteurella multocida; conditions: Pasteurella multocida; agar serial dilution, 24 hours, 37° C.; read-out: minimal inhibitory concentration (MIC)
Staph.aureus A 2000 [7] = assay: micro serial dilution test; format: cell-based, Staphylococcus aureus; conditions: Staphylococcus aureus, A2000, 18 h, micro serial dilution (in brackets), about 18 hours, 30° C. or 37° C.; read-out: minimal inhibitory concentration (MIC)
Pseud.aerug. 2396 = assay: agar serial dilution test; format: cell-based; conditions: agar serial dilution, 24 hours, 37° C.; read-out: minimal inhibitory concentration (MIC)
Esch.coli U 20 = assay: agar serial dilution test; format: cell-based, Escherichia coli; conditions: Escherichia coli, U20; agar serial dilution, 24 hours, 37° C.; read-out: minimal inhibitory concentration (MIC)
Strep. faec. L 80 = assay: agar serial dilution test; format: cell-based, Streptococcus faecalis; conditions: Enterococcus faecalis; agar serial dilution, 24 hours, 37° C.; read-out: minimal inhibitory concentration (MIC)
Sarc. lutea ATCC 9341 = assay: agar serial dilution test; format: cell-based; conditions: Micrococcus luteus, ATCC9341, 24 hours, 37° C., read-out: minimal inhibitory concentration (MIC)
Salm.dubl. P 43 = assay: agar serial dilution test; format: cell-based, Salmonella dublin; conditions: Salmonella enterica; agar serial dilution, 24 hours, 37° C.; read-out: minimal inhibitory concentration (MIC)
[8] = test system: Pseud.aerug. Wyeth A 1058; assay: agar serial dilution test; format: cell-based; conditions: agar serial dilution, 24 hours, 37° C.; read-out: minimal inhibitory concentration (MIC)
Strep.haem A 1088 = assay: agar serial dilution test; format: cell-based, Streptococcus haemolyticus; conditions: Streptococcus, A1088, 24 hours, 37° C., read-out: minimal inhibitory concentration (MIC)
Bac.Subt.ATCC 6633 = assay: agar serial dilution test; format: cell-based, Bacillus subtilis; conditions: Bacillus subtilis, ATCC6633, 24 h, agar serial dilution, 24 hours, 37° C.; read-out: minimal inhibitory concentration (MIC)
Staph.aureus A 2000 [9] = assay: agar serial dilution test; format: cell-based, Staphylococcus aureus; conditions: Staphylococcus aureus, A2000, 24 h, agar serial dilution, 24 hours, 37° C.; read-out: minimal inhibitory concentration (MIC)
Bruc. Suis A 2126 = assay: agar serial dilution test; format: cell-based; conditions: Brucella suis, 24 h, read-out: minimal inhibitory concentration (MIC)
Kleb.pneum. A 809 = assay: agar serial dilution test; format: cell-based, Klebsiella pneumoniae; conditions: Klebsiella pneumoniae; agar serial dilution, 24 hours, 37° C.; read-out: minimal inhibitory concentration (MIC)
Prot.mirab. L 93 = assay: agar serial dilution test; format: cell-based, Proteus mirabilis; conditions: Proteus mirabilis; agar serial dilution, 24 hours, 37° C.; read-out: minimal inhibitory concentration (MIC)

For `Cc1nc(CC(=O)N[C@@H]2C(=O)N3C(C(=O)O)=C(CSc4nnnn4C)CS[C@H]23)no1` [41 B, 7-[5-methyl-1,2,4-oxadiazol-3-yl-acetamido]-3-[1-methyl-tetrazol-5-yl-mercaptomethyl]-3-cephem-4-carboxylic acid], the MIC (Staph.aureus A 2001 [1]) was 0.6 µg/mL (≈ 1.33 µM), the MIC (Salm.typh. R 172) was 1.5 µg/mL (≈ 3.32 µM) and the MIC (Pseud.aerug. H 10) was 100 µg/mL (≈ 221 µM). For the same compound, the MIC (Staph.aureus A 321) was 0.25 µg/mL (≈ 0.553 µM), the MIC (Prot.rettg. A 821) was 0.5 µg/mL (≈ 1.11 µM) and the MIC (Prot.mirab. A 1200 [2]) was 5 µg/mL (≈ 11.1 µM). It also gave an MIC (Dipl.pneum. L 54) of 1.5 µg/mL (≈ 3.32 µM), an MIC (Staph.aureus A 355 [3]) of 0.9 µg/mL (≈ 1.99 µM) and an MIC (Prot.mirab. H 3) of 12.5 µg/mL (≈ 27.6 µM). It also gave an MIC (Prot.morg. 2241) of 100 µg/mL (≈ 221 µM), an MIC (Actinob.equ. T 3) of 0.5 µg/mL (≈ 1.11 µM) and an MIC (Staph.aureus A 355 [4]) of 1 µg/mL (≈ 2.21 µM). The MIC (Prot.mirab. A 1200 [5]) was 25 µg/mL (≈ 55.3 µM), the MIC (Staph.aureus A 2001 [6]) was 0.5 µg/mL (≈ 1.11 µM) and the MIC (Past.multo. A 723) was 1.5 µg/mL (≈ 3.32 µM). It also gave an MIC (Staph.aureus A 2000 [7]) of 0.6 µg/mL (≈ 1.33 µM), an MIC (Pseud.aerug. 2396) of 100 µg/mL (≈ 221 µM) and an MIC (Esch.coli U 20) of 1.5 µg/mL (≈ 3.32 µM). For the same compound, the MIC (Strep. faec. L 80) was greater than 100 µg/mL, the MIC (Sarc. lutea ATCC 9341) was 0.5 µg/mL (≈ 1.11 µM) and the MIC (Salm.dubl. P 43) was 1.5 µg/mL (≈ 3.32 µM). The MIC [8] was 100 µg/mL (≈ 221 µM), the MIC (Strep.haem A 1088) was 0.5 µg/mL (≈ 1.11 µM) and the MIC (Bac.Subt.ATCC 6633) was 0.5 µg/mL (≈ 1.11 µM). It also gave an MIC (Staph.aureus A 2000 [9]) of 1 µg/mL (≈ 2.21 µM), an MIC (Bruc. Suis A 2126) of 1 µg/mL (≈ 2.21 µM) and an MIC (Kleb.pneum. A 809) of 1 µg/mL (≈ 2.21 µM). For the same compound, the MIC (Prot.mirab. L 93) was 12.5 µg/mL (≈ 27.6 µM).

Reference: patent publication US4160829A, “Antibacterial 1,2,4-oxadiazolylacetamido cephalosporins” (Gist-Brocades N.V., priority 1972, dated 1979)
